# Source: patent US10208089B2, “Modulation of complement activity” (priority 2014, dated 2019)
# pIC50: −log10 of the molar value. Starred links: 1 amine or outer side, 2 acyl side, 3 side chain; linkers in the order of their positions; H or OH if unused. Positions of bridges follow the written chain, without caps; N, C: chain ends. Non-standard residues stand in square brackets, D forms with d. Residues, ends and D or L forms follow the SMILES beside them. Trp(7-aza) = N[C@@H](Cc1c[nH]c2ncccc12)C(=O)O; mXylylene = c1cc(C[*:1])cc(C[*:2])c1; Phg = N[C@H](C(=O)O)c1ccccc1; Tle = CC(C)(C)[C@H](N)C(=O)O; NMeS = CN[C@@H](CO)C(=O)O; Nva = CCC[C@H](N)C(=O)O; Sar = CNCC(=O)O
# Biological target: C5 (Homo sapiens, UniProt P01031)
# Sequence (P01031 19-1676): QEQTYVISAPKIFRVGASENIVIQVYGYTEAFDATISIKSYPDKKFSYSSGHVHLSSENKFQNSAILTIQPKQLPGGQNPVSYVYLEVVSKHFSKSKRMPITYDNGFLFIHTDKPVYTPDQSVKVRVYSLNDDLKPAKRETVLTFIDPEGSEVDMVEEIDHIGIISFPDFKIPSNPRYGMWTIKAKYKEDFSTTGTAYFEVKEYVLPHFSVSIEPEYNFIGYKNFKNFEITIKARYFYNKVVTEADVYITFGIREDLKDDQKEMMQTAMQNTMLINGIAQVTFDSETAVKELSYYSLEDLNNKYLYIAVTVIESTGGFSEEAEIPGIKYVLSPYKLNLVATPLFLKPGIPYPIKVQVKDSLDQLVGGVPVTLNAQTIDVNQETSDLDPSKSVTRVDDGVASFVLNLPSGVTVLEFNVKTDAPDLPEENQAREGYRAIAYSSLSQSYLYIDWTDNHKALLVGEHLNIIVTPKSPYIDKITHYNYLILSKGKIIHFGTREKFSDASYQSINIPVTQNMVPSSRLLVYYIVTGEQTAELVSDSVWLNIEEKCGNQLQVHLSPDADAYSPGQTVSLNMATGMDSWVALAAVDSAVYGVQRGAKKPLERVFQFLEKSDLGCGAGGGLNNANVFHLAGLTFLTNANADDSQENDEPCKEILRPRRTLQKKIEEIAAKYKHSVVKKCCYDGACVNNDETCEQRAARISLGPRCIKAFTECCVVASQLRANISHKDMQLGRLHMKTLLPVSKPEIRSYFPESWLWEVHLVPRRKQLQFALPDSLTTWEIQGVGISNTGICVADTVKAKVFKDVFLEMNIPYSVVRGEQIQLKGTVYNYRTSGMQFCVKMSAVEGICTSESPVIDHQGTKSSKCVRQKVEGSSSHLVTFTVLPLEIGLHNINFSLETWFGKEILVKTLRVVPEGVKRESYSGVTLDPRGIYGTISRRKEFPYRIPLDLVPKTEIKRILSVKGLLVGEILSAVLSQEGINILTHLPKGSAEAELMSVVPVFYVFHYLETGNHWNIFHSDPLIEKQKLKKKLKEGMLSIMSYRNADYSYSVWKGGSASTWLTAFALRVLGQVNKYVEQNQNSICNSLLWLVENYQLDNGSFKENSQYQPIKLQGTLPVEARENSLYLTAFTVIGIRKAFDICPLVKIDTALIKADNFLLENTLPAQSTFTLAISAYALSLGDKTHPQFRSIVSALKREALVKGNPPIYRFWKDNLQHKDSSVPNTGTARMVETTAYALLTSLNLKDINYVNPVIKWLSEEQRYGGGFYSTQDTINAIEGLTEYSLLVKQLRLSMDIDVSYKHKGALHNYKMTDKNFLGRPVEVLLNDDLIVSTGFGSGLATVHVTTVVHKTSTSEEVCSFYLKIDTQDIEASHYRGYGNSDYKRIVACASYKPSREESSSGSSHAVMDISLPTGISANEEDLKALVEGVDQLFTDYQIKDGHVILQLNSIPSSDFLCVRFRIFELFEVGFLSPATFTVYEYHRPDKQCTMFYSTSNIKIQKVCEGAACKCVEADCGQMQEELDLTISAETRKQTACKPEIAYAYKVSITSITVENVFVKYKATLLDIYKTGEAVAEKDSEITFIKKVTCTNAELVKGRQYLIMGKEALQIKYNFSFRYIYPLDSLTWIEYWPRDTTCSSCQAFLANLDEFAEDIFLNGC
# Test: Human hemolysis assay (RBC lysis assay using complete human sera)
# Format: cell-based
# Design: with complete human sera (Complement Technology, Tyler Tex.) and polypeptides; tissue Complement Technology, Tyler Tex; host or cells: complete human serum
# Settings: inhibition of lysis of antibody-sensitized sheep erythrocytes, complete human sera
row,SMILES,pIC50
1,"CCC[C@H](NC(C)=O)C(=O)N[C@@H](CS)C(=O)N[C@@H](Cc1ccc(O)cc1)C(=O)N[C@@H](CCCCN)C(=O)N[C@@H](CC(N)=O)C(=O)N[C@@H](Cc1ccc(O)cc1)C(=O)N[C@@H](Cc1c[nH]cn1)C(=O)N[C@@H](Cc1c[nH]c2ncccc12)C(=O)N[C@@H](CCC(=O)O)C(=O)N[C@@H](Cc1ccc(O)cc1)C(=O)N1CCC[C@H]1C(=O)N[C@H](C(=O)N[C@@H](Cc1ccc(O)cc1)C(N)=O)C(C)(C)C [Compound R3000, Ac-Nvl-C-Y-K-N-Y-H-azaTrp-E-Y-P-Tbg-Y-NH2] (Ac-[Nva]CYKNYH[Trp(7-aza)]EYP[Tle]Y-NH2)",< 5.00
2,"CCC[C@H](NC(C)=O)C(=O)N[C@@H](CS)C(=O)N[C@@H](Cc1ccc(O)cc1)C(=O)N[C@@H](CCC(=O)O)C(=O)N[C@@H](CC(N)=O)C(=O)N[C@H](C(=O)N[C@@H](Cc1ccc(O)cc1)C(=O)N[C@@H](Cc1c[nH]c2ncccc12)C(=O)N[C@@H](CCC(=O)O)C(=O)N[C@@H](Cc1ccc(O)cc1)C(=O)N(C)CC(=O)N[C@@H](CCC)C(=O)N(C)[C@@H](CO)C(N)=O)C(C)(C)C [Compound R3001, Ac-Nvl-C-Y-E-N-Tbg-Y-azaTrp-E-Y-(N-Me)G-Nvl-(N-Me)S-NH2] (Ac-[Nva]CYEN[Tle]Y[Trp(7-aza)]EY[Sar][Nva][NMeS]-NH2)",7.17
3,"CCC[C@H](NC(C)=O)C(=O)N[C@@H](CS)C(=O)N[C@@H](Cc1ccc(O)cc1)C(=O)N[C@@H](CC(N)=O)C(=O)N[C@@H](CC(N)=O)C(=O)N[C@H](C(=O)N[C@@H](CCC(=O)O)C(=O)N[C@@H](Cc1c[nH]c2ncccc12)C(=O)N[C@@H](CCC(=O)O)C(=O)N[C@@H](Cc1ccc(O)cc1)C(=O)N1CCC[C@H]1C(=O)N[C@H](C(=O)N[C@H](C(N)=O)C(C)(C)C)c1ccccc1)C(C)(C)C [Compound R3004, Ac-Nvl-C-Y-N-N-Tbg-E-azaTrp-E-Y-P-Phg-Tbg-NH2] (Ac-[Nva]CYNN[Tle]E[Trp(7-aza)]EYP[Phg][Tle]-NH2)",7.27
4,"CCC[C@H](NC(C)=O)C(=O)N[C@@H](CS)C(=O)N[C@@H](Cc1ccc(O)cc1)C(=O)N[C@@H](Cc1c[nH]c2ncccc12)C(=O)N(C)CC(=O)N[C@H](C(=O)N[C@@H](CCC)C(=O)N[C@@H](Cc1c[nH]c2ncccc12)C(=O)N[C@@H](CCC(=O)O)C(=O)N[C@@H](Cc1ccc(O)cc1)C(=O)N1CCC[C@H]1C(=O)N[C@H](C(=O)N1CCC[C@H]1C(N)=O)c1ccccc1)C(C)(C)C [Compound R3005, Ac-Nvl-C-Y-azaTrp-(N-Me)G-Tbg-Nvl-azaTrp-E-Y-P-Phg-P-NH2] (Ac-[Nva]CY[Trp(7-aza)][Sar][Tle][Nva][Trp(7-aza)]EYP[Phg]P-NH2)",7.18
5,"CCC[C@H](NC(=O)CN(C)C(=O)[C@H](Cc1ccc(O)cc1)NC(=O)[C@H](CCC(=O)O)NC(=O)[C@H](Cc1c[nH]c2ncccc12)NC(=O)[C@H](Cc1ccc(O)cc1)NC(=O)[C@@H](NC(=O)[C@H](CC(N)=O)NC(=O)[C@H](CCC(=O)O)NC(=O)[C@H](Cc1ccc(O)cc1)NC(C)=O)C(C)(C)C)C(=O)N(C)[C@@H](CO)C(N)=O [Compound R3006, Ac-Y-E-N-Tbg-Y-azaTrp-E-Y-(N-Me)G-Nvl-(N-Me)S-NH2] (Ac-YEN[Tle]Y[Trp(7-aza)]EY[Sar][Nva][NMeS]-NH2)",6.57
6,"CCC[C@H](NC(C)=O)C(=O)N[C@H]1CSCc2cccc(c2)CSC[C@@H](C(=O)N(C)[C@@H](CO)C(=O)N[C@H](C(=O)N[C@@H](CCCCN)C(=O)N[C@@H](Cc2c[nH]c3ncccc23)C(=O)N[C@@H](CCC(=O)O)C(=O)N[C@@H](Cc2ccc(O)cc2)C(N)=O)C(C)(C)C)NC(=O)[C@H](Cc2ccc(O)cc2)NC(=O)[C@H](c2ccccc2)NC(=O)[C@H](CCC(=O)O)NC(=O)[C@H](CCCCN)NC1=O [Compound R3007, [mXylyl(2,7)]Ac-Nvl-C-K-E-Pbg-Y-C-(N-Me)S-Tbg-K-azaTrp-E-Y-NH2] (Ac-[Nva]CKE[Phg]YC[NMeS][Tle]K[Trp(7-aza)]EY-NH2; linker 2-7 via mXylylene)",6.50
